Patent US20140073637A1, “AMINO-SUBSTITUTED-ALKYLOXY-BENZO[E]PYRIDO[4,3-B]INDOLE DERIVATIVES AS NEW POTENT KINASE INHIBITORS” (INSTITUT CURIE, priority 2011, published 2014)

System: H358 spheroids
Test: Multicellular tumour spheroid (MTS) growth
Assay type: cell-based
Procedure: H358 cells were cultured in 3-Dimensions. At day 1, the compound was added at the concentration of 0.6 μM. The spheroid growth was measured each day and expressed as a growth ratio (Vd−Vo/Vo); d for day and o for the starting day. The evolution of the volume of the spheroids is expressed in function of the time (in days). Spheroids grown in the presence of C1 are indicated by triangles whereas rectangles indicate spheroids treated by C14; control spheroids are visualized by diamonds.
In order to get some insight in C14 effects towards organized cells, the inventors have followed H358 spheroid expansion (FIG. 9). Organized 3-dimension spheroids were treated by either C14 (0.5 μM) or C1 (0.5 μM) or DMSO (control). […] C14 was thus found efficient to prevent cell growth even when cells mimicked tissue organization.
The inventors applied the hanging-drop method to produce H358 spheroids of similar diameters. 1400 cells were suspended on the lid of an agar coated 24-petri dishes containing culture medium. 48 h later, the spheroids were transferred to the culture medium. Spheroid volumes were measured before (Day 0) and during the drug treatment (Day N). H358 spheroids were treated by compounds at the concentration of 0.6 μM. Control H358 spheroids were grown under the same conditions without drug treatment. The size of each spheroid was determined by measuring 2 diameters (d1 and d2) using an inverted microscope. The volume was calculated according to the formula: V=4/3π^3 where r=½√d1xd2. Spheroid growth was calculated by measuring the variations in volume and compared to the initial volume V0. The growth ratio was defined as (Vd−Vo)/Vo. Data are the mean of at least three determinations on different spheroids.

Cc1c[nH]c(=O)c2c1[nH]c1ccc3cc(OCCN(C)C)ccc3c12 [Compound C14, 3-(2-N,N-Dimethylaminoethoxy)-8-methyl-7H,10H-benzo[e]pyrido(4,3-b)indol-11-one]
duration of effect on spheroid growth (0.5 μM, 0.6 μM): at least 5 days | effect on 3D-H358 cell (spheroid) growth (in words) (0.5 μM, 0.6 μM): affected significantly | spheroid size at day 10 (in words) (day 10, compared with C1-treated spheroids): smaller than their counterparts treated by C1
